Reference: US7355074B2, “Compounds having aromatic rings and side-chain amide-functionality and a method for transporting monovalent anions across biological membranes using the same” (The University of Maryland, priority 2003, dated 2008)
Marks after values point to notes of the source that are not given here.

Experiments:
[1] = 1H NMR binding experiment in CDCl3, HCl extraction
Description: FIG. 7 illustrates a series of […] spectra (400 mHz, CDCl3, 22° C.) of calixarene tetrabutylamide in the presence of different species: (A) the compound alone (5 mm); (B) the compound with 1 equiv. of Bu4 NCl; (C) the compound after washing CDCl3 solution of the compound with an aqueous solution of 0.5 m HCl; (D) after washing CDCl3 solution of the compound with an aqueous solution of 0.5 M H2SO4.
To obtain evidence for Cl^− binding by 2, ^1H NMR experiments were run in CDCl3 using n-Bu4-NCl and HCl as Cl^− sources. Anion receptors usually show chemical shift perturbation upon anion complexation, particularly for amide NH protons that hydrogen bond to the anion. […] Calix[4]arene tetrabutylamide 2 does, however, bind HCl. Thus, shaking a CDCl3 solution of 2 with aqueous HCl led to disappearance of the amide NH proton and a significant upfield shift of the […] protons (FIG. 4c).

[2] = pH-assisted fluorimetric transport assay with calixarene amides (HPTS-loaded liposomes); type: biochemical
Description: The ability of 1 and 2 to mediate ion flux across a lipid bilayer was studied fluorimetrically. A solution of 1 or 2 was added to a suspension of EYPC large unilamellar vesicles (LUVs) containing the pH-sensitive dye pyranine. An NaOH solution was added to the extravesicular buffer to create a gradient of approximately one pH unit. The resulting electrostatic potential, caused by proton efflux from the liposomes, can be compensated by cation influx or anion efflux, as mediated by the exogenous ligand. Ion transport across the membrane was signaled by the increase in relative fluorescence that accompanied the rise in intravesicular pH.
Liposome Preparation. EYPC HPTS-Containing LUVs, egg yolk 1-α-phosphatidylcholine (EYPC, 60 mg, […]) was dissolved in a CHCl3MeOH mixture, the solution was evaporated under reduced pressure, and the resulting thin film was dried under high vacuum for 2 h. The lipid film was hydrated in 1.2 mL of phosphate buffer (10 mM sodium phosphage, pH=6.4, 75-100 mM MX, M=Na^+, K^+, Cs^+, X=[…], SO4^2−) containing 10 μM HPTS (pyranine 8-hydroxypyrene-1,3,6-trisulfonic acid trisodium salt) for 2 h. The LUV suspension (1 mL) was submitted to high-pressure extrusion at room temperature (2) extrusions through a 0.1 μM polycarbonate membrane afforded LUVs with a diameter of 100 nm). The LUV suspension was separated from extravesicular dye by size exclusion chromatography (SEC) stationary phase: Sephadex G-10, mobile phase:phosphate buffer) and diluted with the same phosphate buffer to give a stock solution with a lipid concentration of 11 mM (assuming 100% of lipid was incorporated into liposomes).
Fluorimetric Transport Assays. pH-Assisted Transport Assays. Typically, 100 μL of HPTS-loaded vesicles (stock solution) was suspended in 1.85 mL of the corresponding buffer and placed into a fluorimetric cell. HPTS emission at 510 nm was monitored with excitation wavelengths at 403 and 460 nm simultaneously. During the experiment, 20 μL of a 0-10 mM THF solution of the compound of interest was added through an injection port, followed by injection of 21 μL of 0.5 M aqueous NaOH. Addition of the NaOH caused a pH increase of approximately 1 pH unit in the extravesicular buffer. Maximal changes in dye emission were obtained at the end of each experiment by lysis of the liposomes with detergent (40 μL of 5% aqueous Triton x100). The final transport trace was obtained as a ratio of the emission intensities monitored at 460 and 403 nm and normalized to 100% of transport.

[3] = pH-stat fluorescent transport assay with oligophenoxyacetamides (HPTS-loaded liposomes); type: biochemical; conditions: 100 mM NaCl inside and outside; 50 μm (10 mol % ligand to lipid ratio)
Description: FIGS. 1A and 1B are derived from of pH-stat fluorescent assays with oligophenoxyacetamide compounds 1-6 described herein. Suspensions of EYPC LUVs containing the pH sensitive dye pyranine (ex 405 nm and 460 nm em 510 nm) in a phosphate buffer were used (0.5 mM of lipid, 10 mM NanH3-nPO4 n=1, 2, pH 6.4 100 mM NaCl inside and outside) (A) illustrates initial pseudo-first order rate constants in the presence of 5 μm of ionophores 1-6 (1 mol % injection of 20 μl of 0.5 mM DMSO solution of 1-6 into 1.9 mL of vesicular suspension was followed by injection of 21 μl of 0.5 M NaOH and final lysis of liposomes with Triton X-100; (B) illustrates initial pseudo-first order rate constants assessed for various concentrations of oligomeric ionophores 2-6. The same experimental protocol as in (A) was used. Legend for traces denotes use of oligocompounds 2, 3, 4, 5, 6.
Liposome Preparation for Fluorimetric Assays. Egg yolk L-α-phosphatidylcholine (EYPC ethanol solution, […], 79 μmol) was dissolved in a CHCl3/MeOH mixture, the solution was evaporated under reduced pressure and the resulting thin film was dried under high vacuum for 2 h. The lipid film was hydrated in 1.2 mL of phosphate buffer (10 mM sodium phosphate, pH=6.4, 75-100 mM MnX, M=N^+, K^+, X=Cl^−, SO4^2−, n=1,2) containing 10 μM HPTS (pyranine, 8-hydroxypyrene-1,3,6-trisulfonic acid trisodium salt) for 40 min. During hydration, the suspension was submitted to 5 freeze-thaw cycle (liquid nitrogen, water at rt). The large multilamellar liposome suspension (1 mL) was submitted to high-pressure extrusion at rt (21 extrusions through a 0.1 μm polycarbonate membrane afforded a suspension of LUVs with an average diameter of 100 nm). The LUV suspension was separated from extravesicular dye by size exclusion chromatography (SEC) (stationary phase: Sephadex G-10, mobile phase: phosphate buffer) and diluted with the same phosphate buffer to give a stock solution with a lipid concentration of 11 mM (assuming 100% of lipid was incorporated into liposomes).
pH-state transport assays. Typically, 100 μL of HPTS-loaded vesicles (stock solution) was suspended in 1.9 mL of the corresponding buffer and placed into a fluorimetric cell. The emission of HPTS at 510 nm was monitored with excitation wavelengths at 403 and 460 nm simultaneously. During the experiment, 20 μL of a 0-10 mM DMSO solution of the compounds of interest was added (through an injection port), followed by injection of 21 μL of 0.5 M aqueous NaOH. […] Maximal possible changes in dye emission were obtained at the end of each experiment by lysis of the liposomes with detergent (40 μL of 5% aqueous Triton X100). The final transport trace was obtained as a ratio of the emission intensities monitored at 460 and 403 nm and normalized to 100% of transport. Pseudo-first order rate constants were calculated from slopes of the plot of In([H^+ins]−[H^+out]) versus time, here [H^+ins] and [H^+out] are the intravesicular and extravesicular proton concentrations, respectively. The [H^+out] was assumed to remain constant over the course of the experiment, while [H^+ins] values were calculated for each point from the HPTS emission intensities according to the calibration equation pH=1.1684·log(Io/Il)+6.9807, where Io is the emission intensity with excitation at 460 nm and Il is emission intensity with excitation at 403 nm. The calibration was performed by measuring the HPTS emission intensities and the pH values of a […] HPTS solution in 10 mM phosphate buffer containing 100 mM NaCl (see FIG. s3). The absolute values for rate constants varied depending on the age of the vesicular solution and the actual stock solution of liposomes used.

[4] = intravesicular pH of LUVs experiencing a Cl- gradient (calixarene amides); type: biochemical; conditions: NaCl-loaded LUVs in isosmotic Na2SO4 buffer
Description: FIG. 8 illustrates changes in intravesicular pH upon addition of calixarene tetrabutylamide and calixarene octabutylamide to NaCl^+ loaded vesicles suspended in a sulfate phosphate buffer (emission of HPTS is used to monitor the pH changes in LUVs). At t=60 s, 20 μL of 500 μM of calixarene tetrabutylamide 2 (top trace) or the octabutylamide 3 (bottom trace) was added to 1.95 mL of a LUV suspension to give 1:100 ligand:lipid molar ratio. At t=500 s, 40 μL of 5% Triton X-100 was added. Intravesicular pH values were obtained as a function of the ratio of HPTS emission intensities at 510 nm, when excited at […]. The calibration was performed by measuring the HPTS emission intensities and the pH values of a […] HPTS solution in 10 mM phosphate buffer containing 100 mM NaCl. The calibration equation obtained (pH=1.1684×log (I0I1)+6.9807, r=0.998, where I0 is the emission intensity with excitation at […]) was used to convert the emission intensities into actual pH values.
The pH reached its maximum 250 s after addition of 2 and held constant until the liposomes were lysed with detergent. […] In effect, compound 2 moves […] along with Cl^− down the chloride gradient, consequently building a pH gradient across the membrane. Therefore, NaCl filled vesicles lose Cl^− and H^+ upon addition of 2 and become more alkaline.
Calcein-Release Assay. Calcein-loaded vesicles (100 μL of the stock solution), filled with a saline phosphate buffer (10 mM sodium phosphate, pH 6.4, […] NaCl), were suspended in 1.85 mL of an isoosmotic phosphate sulfate buffer (10 mM sodium phosphate, pH 6.4^−75 mM (Na2SO4) and placed into a fluorimetric cell. HPTS emission at 510 nm was monitored with excitation wavelengths at 403 and 460 nm simultaneously. During the experiment, 20 μL of a 0-500 μM THF solution of the compound of interest was added through an injection port. Intravesicular pH values were obtained as a function of the ratio of HPTS emission intensities at 510 nm, when excited at 403 and 460 nm. […]

| Structure (SMILES) | HCl binding [1] | ion transport ([2]; 50 μM) | transport activity [3] | drop in rate constant on changing extravesicular electrolyte from NaCl to CsCl [2] | transport activity when buffer changed from NaCl to Na2SO4 [2] | Initial Pseudo-first Order Transport Rate Constants, Na2SO4 ([2]; 5 μM, 100 mM Na2SO4 inside pH 6.4 and outside pH 7.4, not corrected for unmediated exchange) | Initial Pseudo-first Order Transport Rate Constants, CsCl ([2]; 5 μM, 100 mM NaCl inside pH 6.4, 100 mM CsCl outside pH 7.4, not corrected for unmediated exchange) | Initial Pseudo-first Order Transport Rate Constants, KCl ([2]; 5 μM, 100 mM NaCl inside pH 6.4, 100 mM KCl outside pH 7.4, not corrected for unmediated exchange) | Initial Pseudo-first Order Transport Rate Constants, NaCl ([2]; 5 μM, 100 mM NaCl inside pH 6.4, 100 mM NaCl outside pH 7.4, not corrected for unmediated exchange) | rate constant k of ion transport ([2]; Na2SO4 loaded vesicles in isotonic buffer) | rate constant k of ion transport ([2]; NaCl buffer) | cation selectivity of ion transport ([2]; buffers containing Na, K or Cs) | change of intravesicular pH / pH gradient formation [4] |
| --- | --- | --- | --- | --- | --- | --- | --- | --- | --- | --- | --- | --- | --- |
| CCCCNC(=O)COc1ccccc1 [Monomer 1, N-butyl-2-phenoxyacetamide] | no HCl binding | no ion transport | some activity | – | – | – | – | – | – | – | – | – | – |
| CCCCN(CCCC)C(=O)COc1c2cccc1Cc1cccc(c1OCC(=O)N(CCCC)CCCC)Cc1cccc(c1OCC(=O)N(CCCC)CCCC)Cc1cccc(c1OCC(=O)N(CCCC)CCCC)C2 [calix[4]arene octabutylamide 3, Calix[4]arene Octabutylamide] | – | – | – | 3.5 fold | still mediated significant ion transport | 9.1^b,d ×10^−3 s^−1 | 5.4^b,c ×10^−3 s^−1 | 12^b,c ×10^−3 s^−1 | 19^b,c ×10^−3 s^−1 | 0.0091 s⁻¹ | 0.019 s⁻¹ | discriminates between monovalent cations | did not result in formation of a pH gradient |
